Results from the NIST ThermoML archive (doi:10.1021/acs.jced.5b00940).
± gives the expanded uncertainty stated by the source.

Assay: mn = molality of the nth substance listed, in mol/kg
Details: 100 kPa, Liquid; for viscosity: Capillary tube (Ostwald / Ubbelohde) method; for mass density: Vibrating tube method

Question: For `CC[N+](CC)(CC)CC.[Br-]` [tetraethylammonium bromide] + O, which viscosity (288.15 K, m1 = 0.05) is on record?
Answer: 1.16 ± 0.047 mPa·s

Question: And the viscosity (288.15 K, m1 = 0.5)?
Answer: 1.341 ± 0.054 mPa·s

Question: And the viscosity (288.15 K, m1 = 1)?
Answer: 1.55 ± 0.063 mPa·s

Question: And the viscosity (288.15 K, m1 = 2)?
Answer: 1.942 ± 0.08 mPa·s

Question: And the mass density (288.15 K, m1 = 0.05)?
Answer: 1001.83 ± 2 kg/m3

Question: And the mass density (288.15 K, m1 = 0.5)?
Answer: 1017.91 ± 2 kg/m3

Question: What about the mass density (288.15 K, m1 = 1) of the same compound?
Answer: 1035.82 ± 2 kg/m3

Question: What about the mass density (288.15 K, m1 = 2) of the same compound?
Answer: 1060.98 ± 2.1 kg/m3

Question: What about the viscosity (298.15 K, m1 = 0.05) of the same compound?
Answer: 0.904 ± 0.037 mPa·s

Question: And the viscosity (298.15 K, m1 = 0.5)?
Answer: 1.043 ± 0.042 mPa·s

Question: And the viscosity (298.15 K, m1 = 1)?
Answer: 1.209 ± 0.049 mPa·s

Question: What about the viscosity (298.15 K, m1 = 2) of the same compound?
Answer: 1.513 ± 0.062 mPa·s

Question: And the mass density (298.15 K, m1 = 0.05)?
Answer: 998.859 ± 2 kg/m3

Question: What about the mass density (298.15 K, m1 = 0.5) of the same compound?
Answer: 1015.99 ± 2 kg/m3

Question: And the mass density (298.15 K, m1 = 1)?
Answer: 1032.57 ± 2 kg/m3

Question: What about the mass density (298.15 K, m1 = 2) of the same compound?
Answer: 1057.94 ± 2.1 kg/m3

Question: And the viscosity (308.15 K, m1 = 0.05)?
Answer: 0.731 ± 0.03 mPa·s

Question: What about the viscosity (308.15 K, m1 = 0.5) of the same compound?
Answer: 0.836 ± 0.034 mPa·s

Question: What about the viscosity (308.15 K, m1 = 1) of the same compound?
Answer: 0.959 ± 0.039 mPa·s

Question: And the viscosity (308.15 K, m1 = 2)?
Answer: 1.189 ± 0.049 mPa·s

Question: What about the mass density (308.15 K, m1 = 0.05) of the same compound?
Answer: 993.878 ± 2 kg/m3

Question: And the mass density (308.15 K, m1 = 0.5)?
Answer: 1010.17 ± 2 kg/m3

Question: What about the mass density (308.15 K, m1 = 1) of the same compound?
Answer: 1027.25 ± 2 kg/m3

Question: What about the mass density (308.15 K, m1 = 2) of the same compound?
Answer: 1051.91 ± 2.1 kg/m3

Question: And the viscosity (318.15 K, m1 = 0.05)?
Answer: 0.612 ± 0.025 mPa·s

Question: And the viscosity (318.15 K, m1 = 0.5)?
Answer: 0.7 ± 0.028 mPa·s

Question: And the viscosity (318.15 K, m1 = 1)?
Answer: 0.792 ± 0.032 mPa·s

Question: And the viscosity (318.15 K, m1 = 2)?
Answer: 0.952 ± 0.039 mPa·s

Question: And the mass density (318.15 K, m1 = 0.05)?
Answer: 991.993 ± 2 kg/m3

Question: What about the mass density (318.15 K, m1 = 0.5) of the same compound?
Answer: 1007.21 ± 2 kg/m3

Question: And the mass density (318.15 K, m1 = 1)?
Answer: 1023.5 ± 2 kg/m3

Question: And the mass density (318.15 K, m1 = 2)?
Answer: 1046.83 ± 2.1 kg/m3
